The source of these data is US20240246954A1, “COMPOSITIONS AND METHODS FOR INHIBITING KRAS” (TheRas, Inc., priority 2021, published 2024).

Where only a bound is given, the exact number is not on record here.

Assay [1] has as its target T1, Avi-KRAS G12D (1-169) GppNHp/RAF1 RBD-3×FLAG (52-151) (Homo sapiens, UniProt P01116, G12D).
T1 construct: Avi-KRAS G12D (1-169) GppNHp
Kind of assay: HTRF Raf1-KRAS G12D-GppNHp disruption assay. Format: biochemical. Conditions: 1 h incubation. The procedure, abridged: (§1)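 HTRF read-out (320 nm excitation, 615 nm emission) after two 1 h room-temperature incubations, first with protein mix, then detection reagents. Ten-point dilution series starting at 100 μM; results given as % activity relative to DMSO at 100%.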
In general terms: Time-resolved FRET reads energy transfer from a long-lived donor to a nearby acceptor.

Assay [2] addresses T2, Avi-KRAS G12D/Q25A (1-169) GppNHp/3×FLAG-PI3KCA (157-299) (Homo sapiens, UniProt P01116, G12D/Q25A).
T2 construct: Avi-KRAS G12D/Q25A (1-169) GppNHp
Kind of assay: HTRF PI3KCA-KRAS G12D/Q25A-GppNHp disruption assay. The format is biochemical. Particulars: 1 h incubation. The gist of the method:
as §1

For assay [3], the system named is pERK in GP2d cells (KRAS G12D). The assay is described as follows: Cell-based pERK HTRF assay. Particulars: GP2d, 1 h, 60 min incubation. How it is done:
Biological Example 3. Cell-Based pERK HTRF Assay
pERK assay (Perkin Elmer) was used to determine the effectiveness of compounds in disrupting KRAS G12D protein/effector signaling in cells.
On Day 1, cells (GP2d) were seeded into 96-well plates at 3×10^4 cells/well in 80 μl complete growth media (DMEM, 10% FBS).
On Day 2, cells were treated with compounds at 0.25% DMSO. The source plate was created with compounds diluted in media at 5-fold the final assay concentration. The compounds were run in a 9-point concentration curve starting at 1 μM, with a half-log dilution between concentrations. 20 μL was transferred onto the cell plates (final volume in wells was 100 μL). Plates were harvested after 60 min incubation by aspirating media and adding kit-supplied 1× supplemented lysis buffer to all wells (50 μl per well). Plates were then placed on a plate shaker and incubated at 850 rpm for an additional 30 min.
Antibody mixture solution is prepared by diluting aliquoted d2 and Eu Cryptate antibodies 1:20 in kit supplied detection buffer, mix the diluted antibodies solutions (1:1 v:v). Four μL of this solution is then added to a 384-well detection plate (Perkin Elmer; 6008230).
Samples were homogenized by pipetting up and down and then transferred (16 μL of cell lysates) from the 96-well cell culture plate to two wells of the HTRF 384-well detection plate containing the antibody solution. Plates were centrifuged (524 g for 1 min) and allowed to incubate between 4 and 24 h at room temperature. Maximum signal is reached after 4 h incubation time and remains stable over a period of 24 hours. Therefore, readings can be made between 4 and 24 h of incubation. Plates were centrifuged again (524 g for 1 min), then analyzed on the EnVision plate reader using the following settings: Excitation 320 nm, Bandwidth 75 nm; Emission 615 nm, Bandwidth 85 nm; Gain 100%; Flashes 100; Lag 60 μs.

T2 sequence (P01116 1-169 isoform P01116-2 G12D/Q25A limits assumed): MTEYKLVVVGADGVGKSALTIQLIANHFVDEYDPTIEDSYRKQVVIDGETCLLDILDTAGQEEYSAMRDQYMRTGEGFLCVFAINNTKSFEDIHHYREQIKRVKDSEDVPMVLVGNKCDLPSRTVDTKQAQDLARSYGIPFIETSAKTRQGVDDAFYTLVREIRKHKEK
T1 sequence (P01116 1-169 isoform P01116-2 G12D limits assumed): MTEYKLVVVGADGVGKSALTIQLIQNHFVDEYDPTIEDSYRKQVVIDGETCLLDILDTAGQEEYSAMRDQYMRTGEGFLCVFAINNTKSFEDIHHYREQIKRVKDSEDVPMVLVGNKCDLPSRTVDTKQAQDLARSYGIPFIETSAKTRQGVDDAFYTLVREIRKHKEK

Regarding `CCN1[C@@H]2CC[C@H]1CN(c1nc(OC[C@@]34CCCN3C[C@H](F)C4)nc3c(F)c(-c4ccc(F)c5sc(N)nc45)c(C(F)(F)F)cc13)C2` [Compound 315, 4-(4-((1R,5S)-8-ethyl-3,8-diazabicyclo[3.2.1]octan-3-yl)-8-fluoro-2-(((2R,7aS)-2-fluorotetrahydro-1H-pyrrolizin-7a(5H)-yl)methoxy)-6-(trifluoromethyl)quinazolin-7-yl)-7-fluorobenzo[d]thiazol-2-amine], the IC50 in assay [1] lay within 1000 to 10000 nM; in assay [2], 10000 to 30000 nM; in assay [3], 100 to 1000 nM.
Turning to `Nc1nc2c(-c3cc4nc(OC[C@@]56CCCN5C[C@H](F)C6)nc(O[C@H]5CNC[C@@H]5F)c4cc3C(F)(F)F)ccc(F)c2s1` [Compound 374], the 50% inhibitory concentration (IC50) is 1000 to 10000 nM in assay [1], 10000 to 30000 nM in assay [2] and more than 1000 nM in assay [3].
Turning to `Nc1nc2c(-c3c(C(F)(F)F)cc4c(NC5CC6CC[C@H](C5)N6)nc(OCC56CCCN5CCC6)nc4c3F)ccc(F)c2s1` (stereo partly drawn) [Compound 264], the IC50 in assay [1] is 100 to 1000 nM; in assay [2], 100 to 1000 nM; in assay [3] it was more than 1000 nM.
For the compound `Nc1nc2c(-c3c(C(F)F)cc4c(N5C[C@H]6CC[C@@H](C5)N6)nc(OC[C@@]56CCCN5C[C@H](F)C6)nc4c3Cl)ccc(F)c2s1` [Compound 368, 4-(4-((1R,5S)-3,8-diazabicyclo[3.2.1]octan-3-yl)-8-chloro-6-(difluoromethyl)-2-(((2R,7aS)-2-fluorotetrahydro-1H-pyrrolizin-7a(5H)-yl)methoxy)quinazolin-7-yl)-7-fluorobenzo[d]thiazol-2-amine], the IC50 in assay [1] was 100 to 1000 nM; in assay [2], 100 to 1000 nM; in assay [3], not above 100 nM.
`CC(C)N1C2CCC1CN(c1nc(OC[C@@]34CCCN3C[C@H](F)C4)nc3c(F)c(-c4ccc(F)c5sc(N)nc45)c(C(F)(F)F)cc13)C2` [Compound 316]: the IC50 in assay [1] was in the range of 1000 to 10000 nM; in assay [2], 1000 to 10000 nM; in assay [3] it was 100 to 1000 nM.
Turning to `C[C@H]1CNC[C@@H]1N(C)c1nc(OC[C@@]23CCCN2C[C@H](F)C3)nc2c(F)c(-c3ccc(F)c4sc(N)nc34)c(C(F)(F)F)cc12` [Compound 309], the values for the concentration for half-maximal inhibition (IC50) in assay [1], in assay [2] and in assay [3] were 1000 to 10000 nM, 1000 to 10000 nM and 100 to 1000 nM, respectively.
For `NCC(=O)N1CCN(c2nc(OCC34CCCN3CCC4)nc3c(F)c(-c4ccc(F)c5sc(N)nc45)c(C(F)(F)F)cc23)CC1` [Compound 127], the IC50 in assay [1] is 100 to 1000 nM; in assay [2], 1000 to 10000 nM; in assay [3], more than 1000 nM.
Consider `CN(c1nc(OC[C@@]23CCCN2C[C@H](F)C3)nc2c(F)c(-c3ccc(F)c4sc(N)c(C#N)c34)c(C(F)(F)F)cc12)[C@]1(C)CCNC1` [Compound 360], for which the IC50 in assay [1] was not above 100 nM; in assay [2], 100 to 1000 nM; in assay [3], not above 100 nM.
On to `CN(c1nc(OC[C@@]23CCCN2C[C@H](F)C3)nc2c(F)c(-c3ccc(F)c4sc(N)c(C#N)c34)c(C(F)(F)F)cc12)[C@H]1CNC[C@@H]1F` [Compound 355], for which the half-maximal inhibitory concentration (IC50) in assay [1] was 100 to 1000 nM; in assay [2], 1000 to 10000 nM; in assay [3], not above 100 nM.
`CN(c1nc(OCC2(CN3CCOCC3)CC2)nc2c(F)c(-c3ccc(F)c4sc(N)nc34)c(C(F)(F)F)cc12)[C@@H]1CCNC1` [Compound 296]: the IC50 in assay [1] was 100 to 1000 nM; in assay [2], 1000 to 10000 nM; in assay [3], not above 100 nM.
With `CN(c1nc(OCC2(CN3CC[C@@H](F)C3)CC2)nc2c(F)c(-c3ccc(F)c4sc(N)nc34)c(C(F)(F)F)cc12)[C@@H]1CCNC1` [Compound 297], the results for the IC50 in assay [1], in assay [2] and in assay [3] were 100 to 1000 nM, 1000 to 10000 nM and 100 to 1000 nM, respectively.
As to `Nc1nc2c(-c3c(Cl)cc4c(N5CC6CC(C5)N6)nc(OCC56CCCN5CCC6)nc4c3F)ccc(F)c2s1` [Compound 184, 4-(4-(3,6-diazabicyclo[3.1.1]heptan-3-yl)-6-chloro-8-fluoro-2-((tetrahydro-1H-pyrrolizin-7a(5H)-yl)methoxy)quinazolin-7-yl)-7-fluorobenzo[d]thiazol-2-amine], the values for the half-inhibitory concentration (IC50) in assay [1], in assay [2] and in assay [3] were 100 to 1000 nM, 1000 to 10000 nM and more than 1000 nM, respectively.
On the same counts, the results for `CN1C[C@H](F)C[C@H]1COc1nc(N2CC3CCC(C2)N3)c2cc(C(F)(F)F)c(-c3ccc(F)c4sc(N)nc34)c(F)c2n1` [Compound 275] are 1000 to 10000 nM, 1000 to 10000 nM and not above 100 nM.
For `N#Cc1c(N)sc2c(F)ccc(-c3c(OC(F)(F)F)cc4c(N5CC6CCC(C5)N6)nc(OC[C@@]56CCCN5C[C@H](F)C6)nc4c3F)c12` [Compound 320], the half-inhibitory concentration (IC50) in assay [1] is 100 to 1000 nM; in assay [2], 100 to 1000 nM; in assay [3], not above 100 nM.
For the compound `NCC(=O)N1CC(Nc2nc(OCC34CCCN3CCC4)nc3c(F)c(-c4ccc(F)c5sc(N)nc45)c(C(F)(F)F)cc23)C1` [Compound 187], the IC50 in assay [1] is 100 to 1000 nM; in assay [2], 1000 to 10000 nM; in assay [3] it was more than 1000 nM.
With `CN(c1nc(OCC23CCCN2CCC3)nc2c(F)c(-c3ccc(F)c4sc(N)nc34)c(C(F)(F)F)cc12)[C@H]1CC[C@H](N)CC1` [Compound 304], the half-maximal inhibitory concentration (IC50) in assay [1] was 1000 to 10000 nM; in assay [2] it was 1000 to 10000 nM; in assay [3], more than 1000 nM.
On to `N#Cc1c(N)sc2c(F)ccc(-c3ccc4c(N5CC6CCC(C5)N6)nc(OC[C@@]56CCCN5C[C@H](F)C6)nc4c3F)c12` [Compound 358], for which the IC50 was 100 to 1000 nM in assay [1], 1000 to 10000 nM in assay [2] and not above 100 nM in assay [3].
As for `Nc1nc2c(-c3c(OC(F)(F)F)cc4c(N5CC6CCC(C5)N6)nc(OC[C@@]56CCCN5C[C@H](F)C6)nc4c3F)ccc(F)c2s1` [Compound 232], the IC50 was 100 to 1000 nM in assay [1], 10000 to 30000 nM in assay [2] and not above 100 nM in assay [3].
In the same order, the values of `N#Cc1cc2c(N3CC4CCC(C3)N4)nc(OC[C@@]34CCCN3C[C@H](F)C4)nc2c(Cl)c1-c1ccc(F)c2sc(N)c(C#N)c12` [Compound 372] are 1000 to 10000 nM, 1000 to 10000 nM and 100 to 1000 nM.
Take `N#Cc1c(N)sc2c(F)ccc(-c3c(C(F)(F)F)cc4c(N5CC6CCC(C5)N6)nc(OCC5(CN6CC[C@@H](F)C6)CC5)nc4c3F)c12` [Compound 330]: the IC50 in assay [1] was not above 100 nM; in assay [2] it was 100 to 1000 nM; in assay [3], not above 100 nM.
As to `N#Cc1c(N)cccc1-c1c(C(F)(F)F)cc2c(N3CC4CCC(C3)N4)nc(OCC34CCCN3CCC4)nc2c1F` [Compound 342], the IC50 in assay [1] is 10000 to 30000 nM; in assay [2] it was 10000 to 30000 nM; in assay [3] it was more than 1000 nM.
Regarding `Nc1nc2c(-c3c(C(F)(F)F)cc4c(N5CC6CCC5CN6)nc(OC[C@@]56CCCN5C[C@H](F)C6)nc4c3F)ccc(F)c2s1` (stereo partly drawn) [Compound 223], the values for the concentration for half-maximal inhibition (IC50) in assay [1], in assay [2] and in assay [3] were 100 to 1000 nM, 100 to 1000 nM and not above 100 nM, respectively.
With `CN(c1nc(OCC23CCCN2CCC3)nc2c(F)c(-c3ccc(F)c4sc(N)nc34)c(C(F)(F)F)cc12)[C@@H]1CCNC1` (single isomer, unassigned) [Compound 236], the IC50 in assay [1] is 100 to 1000 nM; in assay [2], 100 to 1000 nM; in assay [3] it was more than 1000 nM.
In the case of `C[C@@H]1CN(c2nc(OC[C@@]34CCCN3C[C@H](F)C4)nc3c(F)c(-c4ccc(F)c5sc(N)nc45)c(C(F)(F)F)cc23)[C@@H](C)CN1` [Compound 207], the IC50 in assay [1] was 100 to 1000 nM; in assay [2], 1000 to 10000 nM; in assay [3], not above 100 nM.
In the case of `Nc1nc2c(-c3c(C(F)(F)F)cc4c(N5C[C@H]6CC[C@@H](C5)N6)nc(OCC5(CN6CCOCC6)CC5)nc4c3F)ccc(F)c2s1` [Compound 251, 4-(4-((1R,5S)-3,8-diazabicyclo[3.2.1]octan-3-yl)-8-fluoro-2-((1-(morpholinomethyl)cyclopropyl)methoxy)-6-(trifluoromethyl)quinazolin-7-yl)-7-fluorobenzo[d]thiazol-2-amine], the half-maximal inhibitory concentration (IC50) in assay [1] is 100 to 1000 nM; in assay [2], 1000 to 10000 nM; in assay [3] it was not above 100 nM.
In the case of `Nc1nc2c(-c3c(C(F)(F)F)cc4c(N[C@H]5CCC6(CNC6)C5)nc(OCC56CCCN5CCC6)nc4c3F)ccc(F)c2s1` [Compound 335], the half-inhibitory concentration (IC50) in assay [1] is 100 to 1000 nM; in assay [2], 100 to 1000 nM; in assay [3] it was more than 1000 nM.
On to `Nc1nc2c(-c3c(C(F)(F)F)cc4c(N5CC6CCC(C5)N6)nc(OCC5(CN6CC[C@@H](F)C6)CC5)nc4c3F)ccc(F)c2s1` [Compound 252], for which the IC50 in assay [1] is 100 to 1000 nM; in assay [2], 100 to 1000 nM; in assay [3], not above 100 nM.

A word on the IC50: it is the concentration that inhibits the measured activity by half. High values mean weaker potency, low ones greater potency.
